Our source for the Kd values is ChEMBL document CHEMBL3991601, “The target landscape of clinical kinase drugs” (Science, 2017).

In assay [1] the target is Platelet-derived growth factor receptor beta (Homo sapiens, UniProt P09619).
The target in assay [2] is T1, NUAK family SNF1-like kinase 2 (Homo sapiens, UniProt Q9H093).
T1 sequence (Q9H093 whole entry): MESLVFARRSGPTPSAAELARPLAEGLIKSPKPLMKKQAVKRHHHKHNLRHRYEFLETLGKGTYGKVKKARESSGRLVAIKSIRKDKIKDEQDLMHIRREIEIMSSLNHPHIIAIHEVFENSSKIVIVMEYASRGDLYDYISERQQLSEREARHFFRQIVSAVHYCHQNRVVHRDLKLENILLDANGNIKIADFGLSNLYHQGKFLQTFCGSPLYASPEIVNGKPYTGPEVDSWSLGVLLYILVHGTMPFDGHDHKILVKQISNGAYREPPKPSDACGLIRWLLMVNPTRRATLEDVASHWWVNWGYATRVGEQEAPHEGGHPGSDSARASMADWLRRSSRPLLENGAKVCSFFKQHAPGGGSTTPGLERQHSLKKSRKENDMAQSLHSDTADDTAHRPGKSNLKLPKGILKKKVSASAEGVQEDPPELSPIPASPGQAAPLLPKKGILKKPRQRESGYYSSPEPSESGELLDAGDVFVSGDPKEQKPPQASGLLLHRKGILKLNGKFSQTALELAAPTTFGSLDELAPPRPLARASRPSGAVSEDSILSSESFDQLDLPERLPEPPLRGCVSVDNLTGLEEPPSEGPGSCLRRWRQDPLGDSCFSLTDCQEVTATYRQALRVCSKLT

The target of assay [3] is T2, Phosphatidylinositol 5-phosphate 4-kinase type-2 gamma (Homo sapiens, UniProt Q8TBX8).
T2 sequence (Q8TBX8 whole entry): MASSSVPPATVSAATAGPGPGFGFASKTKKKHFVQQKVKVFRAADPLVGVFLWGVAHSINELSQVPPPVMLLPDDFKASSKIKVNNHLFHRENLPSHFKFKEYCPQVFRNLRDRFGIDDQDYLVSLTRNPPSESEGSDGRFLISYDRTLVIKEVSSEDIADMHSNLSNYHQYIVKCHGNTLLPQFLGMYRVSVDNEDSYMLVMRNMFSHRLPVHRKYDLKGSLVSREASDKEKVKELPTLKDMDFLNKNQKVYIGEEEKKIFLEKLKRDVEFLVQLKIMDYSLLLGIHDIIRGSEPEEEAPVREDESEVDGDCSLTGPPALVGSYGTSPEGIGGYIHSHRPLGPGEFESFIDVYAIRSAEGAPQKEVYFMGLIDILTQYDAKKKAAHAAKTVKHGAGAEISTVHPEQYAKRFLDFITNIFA

For assay [4], the target named is T3, Serine/threonine-protein kinase TAO2 (Homo sapiens, UniProt Q9UL54).
T3 sequence (Q9UL54 whole entry): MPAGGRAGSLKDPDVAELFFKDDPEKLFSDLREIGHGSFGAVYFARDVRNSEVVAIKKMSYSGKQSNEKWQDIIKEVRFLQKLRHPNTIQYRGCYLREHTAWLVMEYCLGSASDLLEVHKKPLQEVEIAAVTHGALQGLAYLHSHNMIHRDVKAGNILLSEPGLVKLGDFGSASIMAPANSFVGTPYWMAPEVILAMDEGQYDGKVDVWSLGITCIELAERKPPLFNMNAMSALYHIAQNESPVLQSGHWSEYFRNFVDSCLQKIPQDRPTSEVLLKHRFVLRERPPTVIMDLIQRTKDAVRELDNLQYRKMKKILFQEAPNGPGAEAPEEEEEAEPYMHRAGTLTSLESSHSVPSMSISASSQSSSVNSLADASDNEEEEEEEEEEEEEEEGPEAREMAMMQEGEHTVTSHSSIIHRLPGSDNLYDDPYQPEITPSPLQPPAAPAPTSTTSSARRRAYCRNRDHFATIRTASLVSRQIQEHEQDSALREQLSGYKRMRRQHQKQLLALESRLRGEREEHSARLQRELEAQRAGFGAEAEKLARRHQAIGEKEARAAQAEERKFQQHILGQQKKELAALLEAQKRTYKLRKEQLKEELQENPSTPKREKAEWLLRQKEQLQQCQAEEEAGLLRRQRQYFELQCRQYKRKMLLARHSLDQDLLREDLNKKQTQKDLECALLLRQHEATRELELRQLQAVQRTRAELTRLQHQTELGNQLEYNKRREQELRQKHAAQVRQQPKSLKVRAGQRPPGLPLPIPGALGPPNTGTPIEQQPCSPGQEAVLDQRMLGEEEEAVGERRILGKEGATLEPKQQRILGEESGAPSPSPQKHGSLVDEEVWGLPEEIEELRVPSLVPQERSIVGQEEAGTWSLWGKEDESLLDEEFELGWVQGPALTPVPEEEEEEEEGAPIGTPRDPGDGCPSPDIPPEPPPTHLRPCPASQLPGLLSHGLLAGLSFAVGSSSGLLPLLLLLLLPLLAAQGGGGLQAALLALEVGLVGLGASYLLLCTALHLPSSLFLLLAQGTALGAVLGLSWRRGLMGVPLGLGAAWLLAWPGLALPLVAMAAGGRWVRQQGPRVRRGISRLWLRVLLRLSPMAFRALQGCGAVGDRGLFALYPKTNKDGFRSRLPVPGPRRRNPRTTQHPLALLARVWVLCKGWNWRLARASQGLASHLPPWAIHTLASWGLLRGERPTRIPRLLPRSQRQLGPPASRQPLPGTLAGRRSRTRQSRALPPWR

Activity calls are given as the source filed them. Cut-off read from the data, not from the text of the source, for most assays here: actives have a measured Kd and inactives only a lower limit. Bounds are passed on as bounds.
Note: in the data inactive means no Kd found up to 30 µM.

Chain of Platelet-derived growth factor receptor beta (P09619 whole entry): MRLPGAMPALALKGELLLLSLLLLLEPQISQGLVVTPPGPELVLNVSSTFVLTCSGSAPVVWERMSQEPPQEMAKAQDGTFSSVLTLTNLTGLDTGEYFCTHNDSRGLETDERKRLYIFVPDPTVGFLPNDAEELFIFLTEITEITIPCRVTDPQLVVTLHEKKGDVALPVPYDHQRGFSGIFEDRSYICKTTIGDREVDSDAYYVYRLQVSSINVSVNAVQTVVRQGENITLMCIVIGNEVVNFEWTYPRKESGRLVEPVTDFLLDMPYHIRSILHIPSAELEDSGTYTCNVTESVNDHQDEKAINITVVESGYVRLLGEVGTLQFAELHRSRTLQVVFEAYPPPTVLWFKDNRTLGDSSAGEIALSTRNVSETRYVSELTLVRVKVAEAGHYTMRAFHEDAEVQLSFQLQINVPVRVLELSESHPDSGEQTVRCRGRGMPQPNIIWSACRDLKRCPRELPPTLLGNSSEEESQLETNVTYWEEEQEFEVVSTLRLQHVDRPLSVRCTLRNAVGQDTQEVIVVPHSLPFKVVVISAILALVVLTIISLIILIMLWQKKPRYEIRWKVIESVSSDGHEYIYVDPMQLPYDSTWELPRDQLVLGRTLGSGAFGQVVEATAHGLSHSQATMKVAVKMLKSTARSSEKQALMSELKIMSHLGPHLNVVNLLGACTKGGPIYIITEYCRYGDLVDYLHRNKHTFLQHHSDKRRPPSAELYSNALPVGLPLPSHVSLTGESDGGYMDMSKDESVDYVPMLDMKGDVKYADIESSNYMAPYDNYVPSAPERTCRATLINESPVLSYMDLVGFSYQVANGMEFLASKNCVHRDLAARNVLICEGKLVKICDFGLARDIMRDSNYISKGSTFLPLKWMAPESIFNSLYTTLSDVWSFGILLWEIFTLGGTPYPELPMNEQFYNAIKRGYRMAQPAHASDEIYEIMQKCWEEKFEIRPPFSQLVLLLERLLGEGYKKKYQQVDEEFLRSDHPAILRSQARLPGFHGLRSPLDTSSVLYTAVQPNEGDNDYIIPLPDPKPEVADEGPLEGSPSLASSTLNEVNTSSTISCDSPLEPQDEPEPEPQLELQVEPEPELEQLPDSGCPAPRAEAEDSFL

A word on the Kd: it is a measure of binding affinity in units of concentration. Turning to `CCN1CCN(Cc2ccc(-c3cc4c(N[C@H](C)c5ccccc5)ncnc4[nH]3)cc2)CC1` [AEE-788], the Kd in assay [1] is 9.38 µM (active); in assay [2], > 30 µM (inactive); in assay [3], > 30 µM (inactive); in assay [4] it was > 30 µM (inactive).
In the case of `CN1N=C(N)c2cn([C@@H]3O[C@H](COP(=O)(O)O)[C@@H](O)[C@H]3O)c3ncnc1c23` [TRICIRIBINE PHOSPHATE], the Kd in assay [1], in assay [2], in assay [3] and in assay [4] was > 30 µM (inactive) throughout.
As for `CC(=O)Nc1cccc(-n2c(=O)n(C3CC3)c(=O)c3c(Nc4ccc(I)cc4F)n(C)c(=O)c(C)c32)c1` [TRAMETINIB], the Kd in assay [1], in assay [2], in assay [3] and in assay [4] was > 30 µM (inactive) in each case.
On to `COCCNCc1ccc(-c2cc3nccc(Oc4ccc(NC(=S)NC(=O)Cc5ccc(F)cc5)cc4F)c3s2)nc1` [GLESATINIB], for which the Kd in assay [1] was 2.78 µM (active); in assay [2], > 30 µM (inactive); in assay [3], > 30 µM (inactive); in assay [4] it was > 30 µM (inactive).
Turning to `CNS(=O)(=O)Nc1nccc(Cc2c(C)c3ccc(Oc4ncccn4)cc3oc2=O)c1F` [AVUTOMETINIB], the Kd in assay [1], in assay [2], in assay [3] and in assay [4] was > 30 µM (inactive) in each case.
